{
  "source": "patent US10233157B2",
  "about": "“SIK inhibitor for use in a method of treating an inflammatory and/or immune disorder” (Dana-Farber Cancer Institute, Inc., priority 2012, dated 2019)",
  "molecules": {"B1": {"name": "IL-4: Murine IL-4 from Peprotech, control in macrophage marker experiments (protein, UniProt P07750 21-140, looked up)", "Interleukin-4": "HIHGCDKNHLREIIGILNEVTGEGTPCTEMDVPNVLTATKNTTESELVCRASKVLRIFYLKHGKTPCLKKNSSVLMELQRLFRAFRCLDSSISCTMNESKSTSLKDFLESLKSIMQMDYS"}},
  "key": {"[1]": {"tested_on": "NUAK isoforms", "conditions": "previously reported; cited from earlier work"}, "[2]": {"tested_on": "IKK-related kinases", "conditions": "previously reported; cited from earlier work"}, "[3]": {"tested_on": "MARK isoforms", "conditions": "previously reported; cited from earlier work"}, "[4]": {"tested_on": "LPS-stimulated BMDMs", "assay": "Expression of macrophage markers in LPS-stimulated BMDMs (qPCR)", "format": "cell-based, mouse", "protocol": "FIGS. 10A to 10E. Inhibition of the LKB1-SIK-CRTC3-IL10 signaling axis drives the expression of markers of regulatory macrophages. (FIG. 10A) Effect of SIK inhibitors on the LPS-stimulated expression of LIGHT, SPHK1, Arg1 and IL-1ra (n=4, mean±SD). […] (FIG. 10C) Elevated expression of markers of regulatory macrophage in LKB1−/− macrophages. BMDMs were generated from LysM-Cre/LKB1+/+ and LysM-Cre/LKB1flox/flox mice and stimulated with 100 ng/ml LPS (mean±SD, n=3). (FIG. 10D) CRTC3 is required for the induction of markers of regulatory macrophages. […] LIGHT and SPHK1 mRNA was measured at 2 h and Arg1 at 8 h post-LPS stimulation (mean±SD, n=4). […] The experiment was carried out as in (FIG. 10D) except that BMDMs were generated from IL-10+/+ and IL-10−/− mice (mean±SD, n=4).\n(§1) mRNA was extracted from cells using the RNeasy Micro Kit following the manufacturers' instructions (Qiagen). cDNA was generated from 1 μg of total RNA using the iScript cDNA synthesis kit and quantified by qPCR using the SsoFast EvaGreen Supermix on a CFX96 real time system (Bio-Rad Laboratories). The relative expression of each gene was calculated from Ct values using the Pfaffl method (5) and was normalized against the mRNA levels of 18S RNA or GAPDH. Results are reported relative to untreated control cells, which was set to 1. The following primers were used: […]"}, "[5]": {"tested_on": "protein kinases that possess a threonine residue at the gatekeeper site (Src, Lck, Yes, BTK, FGF and Ephrin receptors)", "assay": "Kinase profiling, kinases with threonine at the gatekeeper site", "format": "biochemical", "conditions": "kinase panel; 1 μM KIN112, 0.1 μM HG-9-91-01", "protocol": "(§2) Recombinant SIK1, SIK2, SIK3 were expressed as GST-fusion proteins in HEK293 cells and purified on a glutathione-Sepharose column. […] FLAG-CRTC3 was immunoprecipitated using anti-FLAG M2 agarose, washed in kinase buffer (50 mM Tris/HCl pH 7.4, 10 mM Mg acetate, 0.1 mM EGTA, 2 mM DTT) and reactions initiated by adding 4 U/ml recombinant kinase with 0.1 mM ATP (specific activity 3000 cpm/pmol). Phosphorylation of CRTC3 was monitored by autoradiography as well as immunoblotting using phosphospecific antibodies raised against Ser162, Ser329 and Ser370. […] Kinase profiling was performed as previously described (7) and performed by the International Centre for Kinase Profiling (www.kinase-screen.mrc.ac.uk)."}, "[6]": {"tested_on": "SIK isoforms", "assay": "Kinase assays, SIK isoforms", "format": "biochemical", "conditions": "in vitro"}, "[7]": {"tested_on": "AMPK-related kinases", "format": "biochemical", "conditions": "members of the AMPK subfamily other than SIKs", "protocol": "as §2"}, "[8]": {"tested_on": "TLR-stimulated macrophages", "assay": "qPCR of CREB-dependent gene mRNA in TLR-stimulated macrophages", "format": "cell-based, mouse", "conditions": "for Nurr77 mRNA: LPS-stimulated macrophages; for IL-10 mRNA: TLR/LPS-stimulated macrophages", "protocol": "Bone-marrow derived macrophages were differentiated for 7 days in DMEM supplemented with 5 ng/ml recombinant M-CSF (R&D systems), 2 mM glutamine, 10% foetal calf serum, penicillin and streptomycin. […]\nmRNA was extracted from macrophages using the RNeasy Micro Kit following the manufacturers' instructions (Qiagen). cDNA was generated from 1 μg of total RNA using the iScript cDNA synthesis kit and quantified by qPCR using the SsoFast EvaGreen Supermix on a CFX96 real time system (Bio-Rad Laboratories). The relative expression of each gene was calculated from Ct values using the Pfaffl method^30 and was normalized against the mRNA levels of 18S RNA. The following primers were used: IL-10-F, […]; IL-10-R, […]; c-Fos-F, […]; c-Fos-R, […]; nurr1-F, […]; nurr1-R, […]; nurr77-F, […]; nurr77-R, […]; 18S-F, […]; 18S-R, […]; IL-1ra-F, […]; IL-1ra-R, […]; SPHK1-F, […]; SPHK1-R, […]; LIGHT-F, […]; LIGHT-R, […]; ArgI-F, […]; ArgI-R, […]; IFN-F, […]; IFNγ-R, […].\n[…]. Biochem J 434:93-104) using the indicated antibodies. RNA was extracted using the RNeasy Micro Kit (Qiagen). cDNA was generated using the iScript cDNA synthesis kit and quantified by qPCR using the SsoFast EvaGreen Supermix (Bio-Rad Laboratories). The relative expression of each gene was calculated from Ct values using the Pfaffl method (Pfaffl M W (2001) A new mathematical model for relative quantification in real-time RT-PCR. Nucleic Acids Res 29:e45) and was normalized against the mRNA levels of 18S or GAPDH RNA. Fold-induction for each gene was reported relative to untreated control cells, which was set to 1. The concentrations of TNFα, IL-6, IL-10, IL-12p40, and RANTES in culture supernatants were measured using the Bio-Plex Pro Assay system from Bio-Rad. Further details in supplementary information.\nas §1"}, "[9]": {"tested_on": "LPS-stimulated macrophages", "assay": "Cytokine secretion in TLR-stimulated bone-marrow derived macrophages", "format": "cell-based, mouse", "protocol": "Bone-marrow derived macrophages were differentiated for 7 days in DMEM supplemented with 5 ng/ml recombinant M-CSF (R&D systems), 2 mM glutamine, 10% foetal calf serum, penicillin and streptomycin.\nFollowing stimulation with ligands, the cell culture medium was removed, clarified by centrifugation for 10 min at 14000×g and the concentration of TNFα, IL-6, IL-10, IL-12p40, and RANTES were measured using the Bio-Plex Pro Assay system from Bio-Rad. IFNβ was measured using an ELISA kit from R&D Systems according to the manufacturers' instructions.\nRNA was extracted using the RNeasy Micro Kit (Qiagen). cDNA was generated using the iScript cDNA synthesis kit and quantified by qPCR using the SsoFast EvaGreen Supermix (Bio-Rad Laboratories). […] Fold-induction for each gene was reported relative to untreated control cells, which was set to 1. The concentrations of TNFα, IL-6, IL-10, IL-12p40, and RANTES in culture supernatants were measured using the Bio-Plex Pro Assay system from Bio-Rad. Further details in supplementary information.\nFollowing stimulation with ligands, the cell culture medium was removed, clarified by centrifugation for 10 min at 14000×g and the concentration of TNFα, IL-6, IL-10, IL-12p40 and RANTES were measured using the Bio-Plex Pro Assay system from Bio-Rad. IL-1ra and IFNβ were measured using ELISA kits from R&D Systems."}, "[10]": {"tested_on": "LKB1−/− cells", "assay": "CREB-dependent gene transcription in IL-1 stimulated LKB1+/+ and LKB1−/− MEFs", "format": "cell-based, mouse"}, "[11]": {"assay": "Drug metabolism and pharmacokinetic properties", "conditions": "compared with MRT67307"}, "[12]": {"tested_on": "LPS-injected mice", "assay": "Cytokine levels in serum of LPS-challenged mice", "format": "in vivo, mouse", "protocol": "C57BL/6 mice (8-12 week old male mice) were injected with vehicle control or 0-30 mg/kg of MRT68771. After 30 min, LPS was introduced by intraperitoneal injection (3.5 mg/kg). One hour later, the mice were sacrificed and the concentrations of TNFα, IL-10 and IFNβ in the sera were measured as described above."}, "[13]": {"tested_on": "CRTC3", "assay": "CRTC3 nuclear translocation (immunofluorescence, live imaging)", "format": "cell-based", "conditions": "WT CRTC3", "text": "FIGS. 15A to 15C. SIK inhibitors induce the dephosphorylation of CRTC3 at Ser62, Ser162, Ser329 and Ser370 and its translocation to the nucleus. (FIG. 15A) HEK293 cells were transfected with FLAG-CRTC2, FLAG-CRTC3 or FLG-CRTC3[S162A]. Aliquots of the cell extracts were subjected to SDS-PAGE and immunoblotting using an antibody that recognizes CRTC2 phosphorylated at Ser171. […] (FIG. 15B) HEK293 cells were transfected with FLAG-CRTC3, FLAG-CRTC3[S62A/S162A/S329A/S370A] (termed CRTC3-4A) or with empty vector (FLAG-ev). […]. (FIG. 15C) Inhibition of SIKs promotes the translocation of endogenous CRTC3 to the nucleus. […].\nRAW264.7 cells were grown on glass coverslips and treated with inhibitors for 1 h. Cells were then fixed for 10 min in 3.7% paraformaldehyde, permeabilized for 5 min using 0.1% Triton X-100 in PBS and blocked for 45 min using 3% BSA in PBS. Cells were stained with anti-CRTC3 (Abcam 1:200) and anti-α-tubulin (Santa Cruz 1:500) followed by anti-rabbit-alexa488 and anti-mouse-alexa594 (Invitrogen 1:500), respectively. Antibodies were diluted in blocking buffer and incubated with the cells for 45 min. […] Images were recorded every 30 s for 1.5 min prior to the addition of drug after which cells were imaged for a further 60 min."}},
  "note": "“Also recorded” adds a separate entry of the source.",
  "data": [
    {"molecule": "O=C(NCCCNc1nc(Nc2cccc(NC(=O)N3CCCC3)c2)ncc1I)c1cccs1", "note": "[BX795]", "values": [
      {"measurement": "inhibition of NUAK1", "setting": "[1]", "result": "potent inhibitor"},
      {"measurement": "inhibition of IKK-related kinases", "setting": "[2]", "result": "potent inhibitor"},
      {"measurement": "inhibition of MARKs", "setting": "[3]", "result": "potent inhibitor"}
    ]},
    {"molecule": "COc1ccc(N(C(=O)Oc2c(C)cccc2C)c2ccnc(Nc3ccc(N4CCN(C)CC4)cc3)n2)c(OC)c1", "note": "[KIN112]", "values": [
      {"measurement": "IL-1ra mRNA", "setting": "[4]; LPS-stimulated macrophages", "result": "greatly increased"},
      {"measurement": "mRNAs of regulatory macrophage markers (arginase-1, SPHK1, LIGHT)", "setting": "[4]; TLR/LPS-stimulated macrophages", "result": "stimulating the production"},
      {"measurement": "switch of macrophage programme from classically activated towards regulatory phenotype", "setting": "[4]; quiescent macrophages", "result": "switched their maturation programme from the classically activated route towards the regulatory phenotype"},
      {"measurement": "inhibition of protein kinases with a threonine residue at the gatekeeper site", "setting": "[5]", "result": "potent inhibitor; also recorded: inhibited"},
      {"measurement": "inhibition of SIKs", "setting": "[6]", "result": "potent inhibitor; also recorded: potently inhibited; also recorded: possess SIK inhibitory activity"},
      {"measurement": "inhibition of AMPK-related kinases", "setting": "[7]", "result": "did not inhibit any other member"},
      {"measurement": "Nurr77 mRNA", "setting": "[8]", "result": "increased"},
      {"measurement": "IL-10 mRNA", "setting": "[8]", "result": "increased"},
      {"measurement": "IL-10 secretion", "setting": "[9]; LPS-stimulated macrophages", "result": "stimulate IL-10 secretion in a dose dependent manner; also recorded: increased"},
      {"measurement": "pro-inflammatory cytokine secretion", "setting": "[9]; LPS-stimulated macrophages", "result": "greatly suppressed"},
      {"measurement": "IL-10 secretion", "setting": "[9]; in response to TLR ligands", "result": "high levels of IL-10"},
      {"measurement": "IL-12p40 secretion", "setting": "[9]; in response to TLR ligands", "result": "low levels of IL-12p40"},
      {"measurement": "CREB-dependent gene transcription", "setting": "[10]; LKB1+/+ cells", "result": "enhanced"},
      {"measurement": "transcription of Nurr1 and Nurr77", "setting": "[10]; LKB1−/− cells", "result": "only be increased to a small extent"}
    ]},
    {"molecule": "Cn1cc(-c2ccc(Nc3ncc(C4CC4)c(NCCCNC(=O)C4CCC4)n3)cc2)cn1", "note": "[MRT68771]", "values": [
      {"measurement": "drug metabolism and pharmacokinetic properties", "setting": "[11]", "result": "improved drug metabolism and pharmacokinetic properties"},
      {"measurement": "inhibition of SIKs", "setting": "[6]", "result": "possess SIK inhibitory activity"},
      {"measurement": "IL-10 in serum", "setting": "[12]", "result": "elevated levels of IL-10"},
      {"measurement": "pro-inflammatory cytokines in serum", "setting": "[12]", "result": "reduced levels of pro-inflammatory cytokines"},
      {"measurement": "IL-10 secretion", "setting": "[9]; LPS-stimulated macrophages", "result": "elevated levels of IL-10"},
      {"measurement": "pro-inflammatory cytokine secretion", "setting": "[9]; LPS-stimulated macrophages", "result": "reduced levels of pro-inflammatory cytokines"}
    ]},
    {"molecule": "CC1(C)C(=O)N([C@H]2CCc3c(O)cccc32)c2nc(Nc3cccc(CN4CCCC4)c3)ncc21", "note": "[MRT199665, 7-[(1S)-4-hydroxy-2,3-dihydro-1H-inden-1-yl]-5,5-dimethyl-2-{[3-(pyrrolidin-1-ylmethyl)phenyl]amino}-5,7-dihydro-6H-pyrrolo[2,3-d]pyrimidin-6-one]", "values": [
      {"measurement": "CRTC3 nuclear translocation", "setting": "[13]", "result": "translocates to the nucleus"},
      {"measurement": "Nurr77 mRNA", "setting": "[8]", "result": "increased"},
      {"measurement": "IL-10 mRNA", "setting": "[8]", "result": "increased"},
      {"measurement": "IL-10 secretion", "setting": "[9]; LPS-stimulated macrophages", "result": "stimulate IL-10 secretion in a dose dependent manner; also recorded: increased"}
    ]},
    {"molecule": "B1", "values": [
      {"measurement": "expression of FIZZ, Ym1 or Mgl2 (wound-healing M2a markers)", "setting": "[4]", "result": "induced the expression"},
      {"measurement": "expression of LIGHT or SPHK1", "setting": "[4]; control experiments", "result": "not LIGHT or SPHK1"}
    ]}
  ]
}
